These are literature values, as cited in US20210319872A1, “DRUG AND DEVICE COMBINATION PRODUCTS WITH IMPROVED SAFETY AND EFFICACY PROFILES” (priority 2016, published 2021).

Structures are written as SMILES. Read-outs that look alike come from different tables or passages of the source.

Where [1] appears, read: nonvalvular atrial fibrillation.

As to `COCCOC(=O)C1=C(C)NC(C)=C(C(=O)OC(C)C)C1c1cccc([N+](=O)[O-])c1` (centres unmarked) [Nimodipine (Nimotop)], under “in vivo”, the Congestive heart failure entry is “Cardiovascular: Congestive heart failure (less than 1%)”; the Diarrhea entry is on record as “Gastrointestinal: Diarrhea (up to 4.2%), Nausea (0.6% to 1.4%)”; the Disseminated intravascular coagulation entry is on record as “(less than 1%), Hematoma (less than 1%)”; the Gastrointestinal hemorrhage entry is “Gastrointestinal: Gastrointestinal hemorrhage (less than 1%)”. For the setting “in vivo”, the Headache result was “Neurologic: Headache (up to 4.1%)”; the Hematoma entry is “(less than 1%), Hematoma (less than 1%)”; the Hypotension result is given as “Cardiovascular: Hypotension (up to 8.1%)”; the Nausea entry is “Gastrointestinal: Diarrhea (up to 4.2%), Nausea (0.6% to 1.4%)”. Besides, the “Serious side effects, listed without incidence or only as rare” value (in vivo) is recorded as “Hematologic: Bleeding, Disseminated intravascular coagulation”.

As for `N#Cc1ccc2[nH]cc(CCCCN3CCN(c4ccc5oc(C(N)=O)cc5c4)CC3)c2c1` [Viibryd], the Serotonin syndrome (in vivo) is 0.1%. Besides, the “Serious side effect, Other” value (listed without frequency) is listed as “Drug withdrawal”.

Take `CCCCc1ncc(/C=C(\Cc2cccs2)C(=O)O)n1Cc1ccc(C(=O)O)cc1` [Eprosartan (Teveten)]: where the note is “in vivo”, the Dizziness entry is “Neurologic: Dizziness (3.8%)”, the Fatigue entry is on record as “Other: Fatigue (1.4%)”, the Myalgia entry is recorded as “Musculoskeletal: Myalgia (1.9%)” and the Neutropenia result is “Hematologic: Neutropenia (1.3%)”. In addition, under “in vivo”, the “Serious side effects, listed without incidence or only as rare” value is on record as “Dermatologic: Edema of face (rare)”.

With `CN1CCN2c3ncccc3Cc3ccccc3C2C1` (centres unmarked) [Mirtazepine (Remeron)], where the note is “in vivo”, the ALT/SGPT level raised result is given as “Hepatic: ALT/SGPT level raised (2%)”; the Asthenia result was “Neurologic: Asthenia (8%), Dizziness (7%), Somnolence (54%)”; the Cirrhosis of liver result was “Hepatic: Cirrhosis of liver (less than 0.1%)”; the Constipation entry is reported as “Gastrointestinal: Constipation (13%), Xerostomia (25%)”. Further, where the note is “in vivo”, the Disturbance in thinking result is recorded as “Psychiatric: Disturbance in thinking (3%)”; the Dizziness result was “Neurologic: Asthenia (8%), Dizziness (7%), Somnolence (54%)”; the Grand mal seizure entry is listed as “Neurologic: Grand mal seizure (less than 0.1%), Status epilepticus”; the Increased appetite result is listed as “Endocrine metabolic: Increased appetite (17%), Serum triglycerides”. For the same compound, where the note is “in vivo”, the Serum triglycerides raised entry is recorded as “raised (increases to 500 mg/dL or greater: 6%), Weight gain (body”; the Somnolence result was “Neurologic: Asthenia (8%), Dizziness (7%), Somnolence (54%)”; the Weight gain entry was “weight increase of 7% or greater: adults 7.5%; pediatrics 49%)”; the Xerostomia entry was “Gastrointestinal: Constipation (13%), Xerostomia (25%)”.

Consider `COc1ccc(C(CN(C)C)C2(O)CCCCC2)cc1` (centres unmarked) [Venlafaxine (Effexor)], for which, under “in vivo”, the Abnormal ejaculation entry was “Reproductive: Abnormal ejaculation (2.2% to 19%), Erectile”; the Asthenia entry is “Neurologic: Asthenia (8% to 19%), Dizziness (11% to 23.9%),”; the Dizziness result is on record as “Neurologic: Asthenia (8% to 19%), Dizziness (11% to 23.9%),”; the Dream disorder result was “Dream disorder (3% to 7%), Headache (25% to 38%), Insomnia”. Moreover, for the setting “in vivo”, the Erectile dysfunction entry is reported as “dysfunction (2.1% to 6%), Orgasm disorder (2% to 5%)”; the Feeling nervous result is reported as “Psychiatric: Feeling nervous (4% to 21.3%)”; the Headache entry is “Dream disorder (3% to 7%), Headache (25% to 38%), Insomnia”; the Hypertension entry was “Cardiovascular: Hypertension (3% to 13%)”. For the same compound, where the note is “in vivo”, the Nausea is given as 22%), Nausea (21% to 58%), Xerostomia (12% to 22%); the Orgasm disorder entry is recorded as “dysfunction (2.1% to 6%), Orgasm disorder (2% to 5%)”; the Seizure result is listed as “Neurologic: Seizure (0.3%)”; the Sweating symptom entry is “Dermatologic: Sweating symptom (6.7% to 25%)”. In addition, where the note is “in vivo”, the Weight loss result was “Endocrine metabolic: Weight loss (3% to 47%)” and the Xerostomia is given as 22%), Nausea (21% to 58%), Xerostomia (12% to 22%).

For `CC[C@@H](C(N)=O)N1CCCC1=O` [Levetiracetam (Keppra)], under “in vivo”, the Asthenia result was “Neurologic: Asthenia (15%), Dizziness (5% to 9%), Headache”; the Cough result was “Respiratory: Cough (2% to 9%), Nasopharyngitis (7% to 15%)”; the “Decreased bone mineral density” value was “Musculoskeletal: Decreased bone mineral density (70%), Neck pain”; the “Decreased white blood cell count” value is given as “blood cell count (2.4% to 3.2%), Eosinophilia (8.6%), Neutropenia”. Further, under “in vivo”, the Dizziness result is given as “Neurologic: Asthenia (15%), Dizziness (5% to 9%), Headache”; the Eosinophilia entry is given as “blood cell count (2.4% to 3.2%), Eosinophilia (8.6%), Neutropenia”; the Fatigue entry is “Other: Fatigue (10% to 11%)”; the Headache entry is recorded as “(14% to 19%)”. Besides, under “in vivo”, the Infectious disease entry is recorded as “Immunologic: Infectious disease (13%)”; the Nasopharyngitis result is recorded as “Respiratory: Cough (2% to 9%), Nasopharyngitis (7% to 15%)”; the Neck pain result is “(2% to 8%)”; the Neutropenia entry was “(partial onset seizures, adults, 2.4%), Pancytopenia,”. Also, where the note is “in vivo”, the Somnolence result was “Neurologic: Somnolence (8% to 45%)”; the Suicidal intent entry is “Psychiatric: Suicidal intent (0.5%), Suicide”; the Vomiting result is “Gastrointestinal: Loss of appetite (3% to 8%), Vomiting (15%)”.

Turning to `CCCCCCOC(=O)NC(=N)c1ccc(NCc2nc3cc(C(=O)N(CCC(=O)OCC)c4ccccn4)ccc3n2C)cc1` [Pradaxa], the Gastroesophageal reflux disease entry (Atrial fibrillation) is reported as “disease (Atrial fibrillation, 5.5%), Gastrointestinal hemorrhage”. For the same compound, under “DVT and pulmonary embolism”, the Indigestion entry is listed as “pulmonary embolism, 7.5%)” and the Intracranial hemorrhage is 0.1%. For the same compound, the Bleeding (DVT and pulmonary embolism prophylaxis) was 10.5%. For the same compound, under “listed without frequency”, the “Serious side effect, Hematologic” value is given as “Thrombosis”; the “Serious side effect, Immunologic” value is “Immunologic: Anaphylaxis”; the “Serious side effect, Respiratory” value is given as “Respiratory: Bleeding, Alveolar”. Also, under setting [1], the Bleeding is 16.6%; the “Bleeding, Major” value is listed as 3.3%; the Gastrointestinal hemorrhage was 6.1%; the “Gastrointestinal hemorrhage, Major” value is on record as 1.6%). Further, under setting [1], the Intracranial hemorrhage result was “(nonvalvular atrial fibrillation, 0.3%; DVT and pulmonary”; the Myocardial infarction is 0.7%.

With `CCOC(=O)[C@H](CCc1ccccc1)N[C@@H](C)C(=O)N1CCC[C@H]1C(=O)O` [Enalapril (Vasotec)], for the setting “in vivo”, the Angioedema result is reported as “Other: Angioedema (0.1% to 1%)”, the Dizziness entry is “Neurologic: Dizziness (4.3% to 7.9%)”, the Fatigue entry is “Other: Fatigue (3%)” and the Hyperkalemia entry is “Endocrine metabolic: Hyperkalemia (1% to 3.8%)”. For the setting “in vivo”, the Hypotension entry was “Cardiovascular: Hypotension (0.9% to 6.7%)” and the Serum creatinine raised result is reported as “raised (0.2% (hypertension) to 20% (hypertension with renal artery”.

Take `CC(C)(C)NCC(O)COc1cccc2c1CC(O)C(O)C2` (centres unmarked) [Nadolol (Corgard)]: for the setting “in vivo”, the Bradyarrhythmia entry was “Cardiovascular: Bradyarrhythmia (2%)”; the Cardiac dysrhythmia entry is “Cardiovascular: Atrioventricular block, Cardiac dysrhythmia (1%),”; the Dizziness entry is “Neurologic: Dizziness (2%)”; the Fatigue result is “Other: Fatigue (2%)”. For the same compound, for the setting “in vivo”, the Heart failure entry is given as “Heart failure (1%)” and the “Serious side effects, listed without incidence or only as rare” value is “Cardiovascular: Atrioventricular block, Cardiac dysrhythmia (1%),”.

Turning to `CNCCC(Oc1ccc(C(F)(F)F)cc1)c1ccccc1` (centres unmarked) [Fluoxetine (Prozac)], where the note is “in vivo”, the Anxiety result is reported as “Psychiatric: Anxiety (3% to 15%), Feeling nervous (3% to 14%)”; the Asthenia entry was “Neurologic: Asthenia (7% to 21%), Dizziness (2% to 11%),”; the Diarrhea entry was “Gastrointestinal: Diarrhea (8% to 18%), Indigestion (6% to 10%),”; the Dizziness entry was “Neurologic: Asthenia (7% to 21%), Dizziness (2% to 11%),”. Further, where the note is “in vivo”, the Feeling nervous entry is given as “Psychiatric: Anxiety (3% to 15%), Feeling nervous (3% to 14%)”; the Indigestion result is reported as “Gastrointestinal: Diarrhea (8% to 18%), Indigestion (6% to 10%),”; the Influenza-like symptoms result was “Other: Influenza-like symptoms (3% to 12%)”; the Insomnia entry is given as “Insomnia (9% to 33%), Somnolence (5% to 17%), Tremor (3% to”. Moreover, for the setting “in vivo”, the Nausea result is given as “Loss of appetite (3.8% to 17%), Nausea (12% to 29%), Xerostomia”; the Pharyngitis result was “Respiratory: Pharyngitis (3% to 11%), Rhinitis (16% to 23%)”; the Rhinitis entry is listed as “Respiratory: Pharyngitis (3% to 11%), Rhinitis (16% to 23%)”; the Seizure entry is “Neurologic: Seizure (0.2%)”. The Xerostomia entry (in vivo) was “(4% to 12%)”.

`Nc1cc(N2CCCCC2)nc(N)[n+]1[O-]` [Minoxidil]: for the setting “in vivo”, the “Body fluid retention (incidence)” value was “Endocrine metabolic: Body fluid retention (7%), Hypernatremia”; the “Electrocardiogram abnormal (incidence)” value is reported as “abnormal (60%), Pericardial effusion (3%), Pericarditis,”; the “Pericardial effusion (incidence)” value is recorded as “abnormal (60%), Pericardial effusion (3%), Pericarditis,”.

Turning to `COc1ccccc1OCCNCC(O)COc1cccc2[nH]c3ccccc3c12` (centres unmarked) [carvedilol, Common brand names - Coreg*], where the note is “in vivo”, the Abnormal weight gain entry was “Endocrine metabolic: Abnormal weight gain (10% to 12%),”; the Atrioventricular block result was “Cardiovascular: Atrioventricular block (greater than 1% to 3%)”; the Bradyarrhythmia result is on record as “Cardiovascular: Bradyarrhythmia (3% to 10%), Hypotension (1.8%”; the Diarrhea entry is reported as “Gastrointestinal: Diarrhea (2% to 12%)”. For the same compound, for the setting “in vivo”, the Dizziness entry is reported as “Neurologic: Dizziness (6% to 33%)”, the Erectile dysfunction entry is on record as “Reproductive: Erectile dysfunction (13.5%)”, the Fatigue result was “Other: Fatigue (24%)” and the Hyperglycemia entry was “Hyperglycemia (5% to 12%)”. Further, the Hypotension result (in vivo) is on record as “Cardiovascular: Bradyarrhythmia (3% to 10%), Hypotension (1.8%”.
